# Experimental data from a melting point compilation (Tetko et al.; mined from patent text by program, amines drawn as free bases though some values may be those of a salt).
# Structures can show the parent of a compound that is named as a salt. Residues, ends and D or L forms follow the SMILES beside them. *: point of attachment. Tfa = O=C(C(F)(F)F)*; NHPh = c1ccc(N*)cc1
row,SMILES,melting point [°C]
1,CCOC(=O)CCNC(=O)n1nc(Oc2c(Cl)cc(C(F)(F)F)cc2Cl)cc1C,73 to 74
2,Cc1cccc(C(=O)C(Br)c2ccnc(F)c2)c1 (stereo unspecified),66 to 67
3,Nc1cc(Cl)c(Cl)cc1-n1cccc1,57 to 58
4,O=C(C(=O)N1CCCCC1)C(Cl)Cl,< 50
5,Cn1c(=O)cc(CCc2cccc(Cl)c2)c2cc(C(N)(c3ccc(Cl)cc3)c3cccnc3)ccc21 (stereo unspecified),90
6,O=C1C=NC(c2ccccc2)O1 (stereo unspecified),90
7,COc1ccc(Cl)cc1NC(=O)[C@H]1[C@H](c2ccc(S(N)(=O)=O)c(C)c2)C1(C)C (relative stereo),118 to 121
8,CC(C)(C)C(NC(=O)c1ccc(Cl)cc1)NC(=NC#N)NCc1cccc(Cl)c1 (stereo unspecified),178 to 180
9,NS(=O)(=O)c1c(Cl)nc2ccc(C3CC3)nn12,194 to 196
10,NC(=O)C1CCc2c([nH]c3ccc(Cl)cc23)C1 (stereo unspecified),203 to 204
11,COC(=O)c1cc(COS(C)(=O)=O)cc([N+](=O)[O-])c1,96 to 97
12,CS(=O)(=O)C1(F)Cc2cc(Cl)ccc2C1=O (stereo unspecified),150
13,O=C(Cn1c(-c2ccc(Cl)cc2)ncc(NC(=O)OCc2ccccc2)c1=O)NC(Cc1ccccc1)C(=O)C(F)(F)F (stereo unspecified),199 to 201
14,COc1ccc([C@@H]2Sc3cc(C)c(C)cc3N(CCN(C)C)C(=O)[C@@H]2O)cc1,117 to 118
15,O=C1CCC(CCO)(c2ccc(F)c(F)c2)CN1Cc1cc(C(F)(F)F)cc(C(F)(F)F)c1 (stereo unspecified),120
16,CC(C)(C)OC(=O)[C@@H](Cc1ccccc1)NC(=O)C1CN(c2ccc(C#N)cc2)C(=O)O1 (stereo partly specified),72
17,Cc1sc(-c2ccc(Cl)cc2)nc1O,198 to 199
18,CCc1nc(NC)sc1-c1ccncc1,146 to 149
19,CCOC(=O)CNC(=O)Nc1ccc(C#N)cc1,140 to 144
20,Cc1cc(OCc2coc(/C=C/c3ccc(Cl)cc3)n2)ccc1CS(=O)CCc1ccnn1C (stereo unspecified),169 to 171
21,COc1cccc(-c2cccc3nc(Nc4cc(OC)c(OC)c(OC)c4)oc23)c1,167 to 170
22,COC(=O)c1cc(O)cc(Cl)c1,133 to 135
23,Cc1cc2c(-c3cccc(-c4noc(=O)[nH]4)c3)c(CC(=O)Nc3ccc(F)cc3C(F)(F)F)c(=O)oc2cc1Cl,285 to 287
24,COC(=O)CON1C(=O)c2ccccc2C1=O,137 to 142

row,SMILES,melting point [°C]
1,OC1CSC(Oc2ccc(-c3cncnc3)cc2)C(O)C1O (stereo unspecified),196 to 200
2,CN1CCc2c(c3ccccc3n2CCC(N)=S)C1,149 to 151
3,CCOC(=O)c1cc(OCc2ccccc2)c2nc(C)c(C)n2c1,140 to 141
4,C=C(C)C(C(=O)OC(C)(C)C)C1(CC(C)C)CCN(CCc2ccccc2)C1=O (stereo unspecified),54.5 to 56
5,O=C(O)CCc1cnoc1-c1ccc(F)c(Br)c1,136 to 137
6,CC(C)(C)OC(=O)N1CCN(C(=O)Cn2sc3ccccc3c2=O)CC1,120 to 122
7,CC(C)c1cccc(C(C)C)c1NC(=O)CCCCCSc1nc2cnccc2[nH]1,96 to 98
8,CCc1nn(C(=O)CCCN2CCOCC2)c(CC)c1CCCCCCOc1ccc(OC)cc1Cl,93 to 95
9,Cc1nccn1-c1ccc(N2C[C@H](CNc3ccon3)OC2=O)cc1F,106 to 107
10,O=C1N[C@H](Cc2ccc(C(F)(F)F)cc2)[C@H](c2ccc(Oc3ccccc3)cc2)O1 (racemic),110 to 111
11,COC(=O)[C@H](Cc1ccc(-c2c(C)cc(C(F)(F)F)n(C)c2=O)cc1)NC(=O)c1c(Cl)cccc1Cl,170 to 173
12,COc1cccc(OC)c1-c1ccc(C[C@H](NC(=O)c2c(Cl)cc(-c3ccn[nH]3)cc2Cl)C(=O)O)cc1,156
13,CC(=O)c1ccc(CCNS(=O)(=O)c2ccc(F)cc2)cc1,106 to 107
14,Cn1nccc1OCc1c(S(C)(=O)=O)ccc(C(=O)O)c1Cl,197
15,Fc1ccc(-c2cc(CCOCc3ccccc3)cc(OCCCCCl)c2)cc1,48 to 49
16,NC(=O)c1ccc(CCN2CCN(Cc3ccccc3Cl)CC2)cc1,170 to 173
17,CC(C)(C)C(CO)NC(=O)C(CC(=O)O)N1C=CN(c2ccc(-c3ccccc3)cc2)C1 (mixture of isomers),145 to 150
18,Cn1ccnc1Sc1ccc(Nc2c(C#N)cnc3cc(-c4ccc(N5CCSCC5)nc4)ccc23)cc1Cl,> 260
19,CC(=O)OCc1c(CNC(=O)c2ccc(C(=O)O)cc2)ccc2c1C(C)(C)CCC2(C)C,95 to 100
20,Cc1cc(C)c(C)c(COc2cccc(-c3ccoc3C(=O)NNC(=O)c3ccc(O)c(C#N)c3)c2)c1C,210 to 211
21,O=S(=O)(NCC1CCN(C[C@H]2COc3ccc(Cl)cc3O2)CC1)c1ccc(F)cc1,127 to 129
22,COc1cnccc1-c1csc(Cc2ccccc2)n1,76 to 77
23,Cc1nn(-c2c(Cl)cc(C(F)(F)F)cc2Cl)nc1COS(C)(=O)=O,126 to 128
24,C=C(c1ccc(C(=O)O)s1)c1cc2cc(C(F)(F)F)ccc2n1S(=O)(=O)c1cccc(C(C)(C)C)c1,195

row,SMILES,melting point [°C]
1,O=C1CN(Cc2ccccc2)C(=O)[C@@H](Cc2c[nH]c3ccccc23)N1,207 to 208
2,C=CC(=O)Nc1ccc2c(Nc3cccc(Br)c3)ncnc2c1,> 265
3,COc1cc(OC)c2c(=O)c(I)coc2c1,158 to 160
4,CC(C)(C)OC(=O)Oc1ccc(C(=O)OCc2ccccc2)cc1,81
5,COCCOc1ccc(/C=C/COC(=O)NS(=O)(=O)NCCN2CCCC2)c(Oc2ncc(C(F)(F)F)cc2Cl)c1,154 to 156
6,CN(C)c1ccc(C(=O)C#Cc2ccncc2)cc1,143 to 145
7,COC(=O)c1ccc(Cn2nc(CO)c3ccc(C(=O)NCC4CCCC4)cc32)c(OC)c1,187 to 188
8,O=C(c1cc2ccc(N3CCCCC3)cc2o1)C12CC3CC(CC(C3)C1)C2,150 to 152
9,CCOCC(=O)Nc1ncc(Br)s1,100 to 102
10,O=C1N(Cc2ccccc2)Cc2cnc(Nc3ccc(N4CCCCC4)cn3)nc2N1C1CCCC1,194 to 196
11,CO[C@@H](Cc1ccc(OCCc2nc(-c3cc(C)cc(C)c3)oc2C)c2ccsc12)C(=O)O,184 to 185
12,CN1CCN(Cc2cc(-c3ccc4c(c3)CCO4)nn(Cc3ccc(F)cc3)c2=O)CC1,179 to 180
13,NC(=O)CN1CCN(C(=O)Cc2ccc(OC(=O)c3ccc([N+](=O)[O-])cc3)cc2)CC1,192 to 196
14,COc1ccc2[nH]c(-c3cccc(F)c3)cc(=O)c2c1OP(=O)(O)O,179 to 181
15,CCCCC1=NC2(CCCC2)C(=O)N1Cc1ccc(-c2ccccc2S(=O)(=O)Nc2onc(C)c2C)c(OCC(C)C)c1,58 to 61
16,CCc1noc(-c2cn(-c3cccc(Oc4ccc(Cl)cc4)c3)cn2)n1,120 to 122
17,CN(C)CCCCCOc1ccc(-c2nnc(CSCCOc3ccccc3)o2)cc1,51 to 54
18,COc1cc(NC(C)=O)c(Cl)cc1NC(=O)N1CCN(Cc2ccccc2)CC1,174
19,CCOC(=O)C1=C(C)NC(=S)N(C(=O)c2ccc(OC)cc2)C1c1cccc([N+](=O)[O-])c1 (stereo unspecified),130 to 132
20,CCCCCS(=O)(=O)NC(=O)/C=C/c1ccc(OCCOC)cc1OCC1CCCCC1,97.5 to 98.3
21,COc1ccc(C2(C#Cc3cccc(-c4nnc(C)s4)c3)CCC(O)CC2)cc1OC1CCCC1 (stereo unspecified),129 to 130
22,CCOC(=O)NN=Cc1cc(-n2c(=O)cc(C(F)(F)F)n(C)c2=O)ccc1Cl,111 to 116
23,O=C(Cn1c(-c2ccc(Cl)cc2)nc2cccnc21)N1CCSC1,215 to 218
24,COc1ccc(Oc2c(C)cc(CC(=O)O)cc2C)cc1C(C)C,118 to 120

row,SMILES,melting point [°C]
1,CCN(Cc1ccccc1Oc1ccccc1)c1ccc(C(=O)O)nn1,70 to 75
2,N#CC(Cc1ccco1)(Cn1cncn1)c1ccc(Cl)cc1 (stereo unspecified),112 to 114
3,CCOC(=O)Nc1cccc(C(=O)Nc2ccc3ccc(OC)nc3n2)c1,120
4,C[C@H](NC(=O)C(F)(F)F)C(=O)N1CCC[C@H]1C(=O)Nc1ccccc1 (Tfa-Ala-Pro-NHPh),204 to 207
5,Cc1oc(-c2ccccc2)nc1COc1ccc(CO)cc1,128 to 129
6,CCc1nc2c(n1C(CC)CC)C(=O)N(C)CN2c1ccc(Cl)cc1Cl,132 to 133
7,O=C(O)COc1cccc2c1Cc1sc(SCCCC(c3ccccc3)c3ccccc3)nc1-2,110 to 112
8,O=C(Nc1ccc(C(=O)Oc2ccccc2)c(Cl)c1)NS(=O)(=O)c1ccccc1,183 to 185
9,COCc1c[nH]c2c([N+](=O)[O-])cccc2c1=O,> 250
10,COc1ccc(-c2cc(Cl)c3cc(O)ccc3c2)cc1,116 to 118
11,O=C(O)CCCCCCCn1ccnc1,91 to 94
12,N#Cc1nc(Cl)c(-c2cccc(Cl)c2)nc1C#N,87 to 88
13,CC(=O)C1C(Cl)CC2C3CCC4CC(O)CCC4(C)C3C(=O)CC21C (stereo unspecified),226 to 227
14,COc1ccc2c(ncn2C(=O)OC(C)(C)C)c1CBr,127 to 129
15,O=c1[nH]c2ccc(F)cc2c(=O)n1CCS,240 to 242
16,COc1ccc(OC)c(CNc2ccc3nc[nH]c(=O)c3c2)c1,203 to 205
17,CC(C)N1C(=O)N(c2ccccc2Cl)CSC1=NC(C)(C)C,88 to 89
18,CC(c1cc(F)ccc1O)c1cc(Cl)cc(C(C)c2cc(F)ccc2O)c1O (stereo unspecified),224
19,O=C1N(c2cccc(C(F)(F)F)c2)CC(CCl)C1(Cl)Cl (stereo unspecified),87 to 100
20,OCc1nc(-c2ccccc2)ccc1Cl,69 to 70
21,Cn1nnc(-c2ccc(CNc3n[nH]c4ncnc(Nc5cccc(Cl)c5)c34)cc2)n1,232 to 235
22,COc1ccc2c(c1)c(CC(=O)NO)c(C)n2C(=O)c1ccc(Cl)cc1,181 to 183
23,Cc1cc(=O)[nH]nc1-c1ccc2nc(C3CC3)n(Cc3ccc(-c4ccccc4-c4nnn[nH]4)cc3)c2c1,225
24,CC1CC(=O)NN=C1c1ccc(NC(=NC#N)NCc2ccccc2)cc1 (stereo unspecified),228 to 229
